In patent US8377636B2, “Biological markers predictive of anti-cancer response to kinase inhibitors” (OSI Pharmaceuticals, LLC, priority 2007, dated 2013):

Experiments:
[1] = test system: H1703 cells; test: Cell motility, closure of the wound; assay type: cell-based, human; conditions: 1 or 5 μM, 24 hrs
Method: (§1) FIG. 3: Inhibition of PDGFR activity in NSCLC. A. H1703 cells were treated with increasing concentrations of PDGFR inhibitor 1 (OSI-930) (▪), PDGFR inhibitor 2 (▴) or an EGFR inhibitor (erlotinib) (▾). After 72 hours incubation proliferation of the cells was measured by CellTitreGlo assay and plotted as a % proliferation relative to untreated cells. B. H1703 cells were treated with the PDGFR inhibitor OSI-930 for 2 hours and then left untreated or treated with PDGF (10 ng/ml) for 15 mins. Protein extracts were prepared and immunoblots probed with the indicated antibodies C. H1703 and Calu1 cells were treated with either 1 or 5 μM of PDGFR inhibitor OSI-930 and the effect on closure of the wound analysed after 24 hrs.

[2] = test system: Calu1 cells; test: Cell motility, closure of the wound; assay type: cell-based, human; conditions: 1 or 5 μM, 24 hrs
Method: as §1

[3] = test system: ERK MAP kinase and AKT pathways in H1703 cells; test: Intracellular signaling, immunoblot of pERK and pAKT; assay type: cell-based, human; parameters: AKT pathway inhibition: dose or concentration left out as unconfirmed
Method: as §1
(§2) FIG. 7: Inhibition of FGFR Signaling in H1703 and H226 NSCLC Cells. H1703 and H226 cells were treated with either […] PD173074 for 2 hours and then left untreated (CON) or treated with 10 ng/ml FGF for 15 min (FGF). Cell lysates were prepared and immunoblots using antibodies against pERK, total ERK, pAKT (ser473), total AKT and β-actin were performed.
(§3) The human NSCLC lines H1299, H266, H522, H650, H1437, H1155, Calu1, Hop92, H23, H292, H358, H322, H441, A549, Calu6, H460, H1703 and SW1573 were cultured in the appropriate ATCC recommended supplemented media. Cell extracts were prepared by detergent lysis (50 mM Tris-HCl, pH8, 150 mM NaCl, 1% NP-40, 0.5% NaDeoxycholate, 0.1% SDS) containing protease and phosphatase inhibitors. The soluble protein concentration was determined by micro-BSA assay (Pierce, Rockford Ill.). In experiments monitoring serum stimulation, cells were grown in media with 0.5% FBS for 24 hours followed by addition of FBS to a final concentration of 10% for 10 minutes prior to lysis. In experiments where inhibitor treatment was required, inhibitor was added at the indicated concentration and the cells the stimulated with the indicated ligand. For cell proliferation assays cells were plated, inhibitor added and proliferation measured after 72 hours using the CELLTITERGLO™ cell viability assay (Promega, Madison Wis.). […]

[4] = test system: ERK MAP kinase and AKT pathways in H226 cells; test: as above; assay type: cell-based, human
Method: as §2, §3

[5] = test system: H1703 cells; test: Cell proliferation, CellTitreGlo assay; assay type: cell-based, human
Method: as §1
(§4) FIG. 6: Inhibition of FGFR activity in NSCLC. A. H1703 (▪), Calu1 (▴) and H226 (▾) cells were treated with increasing concentrations of FGFR inhibitor (PD173074). After 72 hours incubation proliferation of the cells was measured by CellTitreGlo assay and plotted as a % proliferation relative to untreated cells.
(§5) The human NSCLC lines H1299, H266, H522, H650, H1437, H1155, Calu1, Hop92, H23, H292, H358, H322, H441, A549, Calu6, H460, H1703 and SW1573 were cultured in the appropriate ATCC recommended supplemented media. Cell extracts were prepared by detergent lysis (50 mM Tris-HCl, pH8, 150 mM NaCl, 1% NP-40, 0.5% NaDeoxycholate, 0.1% SDS) containing protease and phosphatase inhibitors. The soluble protein concentration was determined by micro-BSA assay (Pierce, Rockford Ill.). In experiments monitoring serum stimulation, cells were grown in media with 0.5% FBS for 24 hours followed by addition of FBS to a final concentration of 10% for 10 minutes prior to lysis. In experiments where inhibitor treatment was required, inhibitor was added at the indicated concentration and the cells the stimulated with the indicated ligand. For cell proliferation assays cells were plated, inhibitor added and proliferation measured after 72 hours using the CELLTITERGLO™ cell viability assay (Promega, Madison Wis.).

[6] = test system: H358 cells; test: Cell proliferation, CellTitreGlo assay; assay type: cell-based, human
Method: as §5

[7] = test system: Calu1 cells; test: Cell proliferation, CellTitreGlo assay; assay type: cell-based, human
Method: as §4, §5

[8] = test system: H226 cells; test: Cell proliferation, CellTitreGlo assay; assay type: cell-based, human
Method: as §4, §5

[9] = test system: Calu6 NSCLC xenograft; test: Xenograft tumor growth inhibition; assay type: in vivo, CD-1 nu/nu mice; conditions: Calu6 xenograft in mice; 100 mg/kg once a day for 14 days, oral gavage
Method: (§6) FIG. 9: Sensitivity of NSCLC cell lines to erlotinib In Vivo. Female CD-1 nu/nu mice were implanted with H292 or Calu6 cells and tumor allowed to grow to 200 mm^3. Animals were then either left untreated or treated with 100 mg/kg erlotinib once a day for 14 days. Tumor volume was measured twice weekly.
(§7) Female CD-1 nu/nu mice (Charles River Laboratories, Wilmington, Mass.) were implanted with harvested NSCLC tumor cells in a single subcutaneous site on the flank of the mice in the axillary region. Tumors were allowed to grow to 200±50 mm^3, at which time the animals were sorted into treatment groups of 8 animals per group based on weight (±1 g body weight) and tattooed on the tail for permanent identification. Tumor volumes and body weights were determined twice weekly. The tumor volume was determined by measuring in two directions with vernier calipers and calculated using the formula: Tumor volume=(length×width^2)/2. The data were plotted as the % change in mean values of tumor volume and body weight for each group. The tumor growth inhibition (% TGI) was determined as % TGI=[…]: where Wt is the median tumor volume of the treated group at time x and Wc is the median tumor volume of the control group at time x. TARCEVA® was dosed in a 6% Captisol (CyDex, Inc) in WFI (Water for Injection) solution and all control animals were dosed with an equal volume of the vehicle. […]

[10] = test system: H292 NSCLC xenograft; test: Xenograft tumor growth inhibition; assay type: in vivo, CD-1 nu/nu mice; conditions: H292 xenograft in mice; 100 mg/kg once a day for 14 days, oral gavage
Method: as §6, §7

[11] = test system: H226 NSCLC cell line; test: Sensitivity of tumor cells to EGFR kinase inhibitor; assay type: cell-based, human; conditions: phenotype Mesenchymal-like
Method: as §5

[12] = test system: H1437 NSCLC cell line; test: as above; assay type: cell-based, human; conditions: phenotype Epithelial
Method: as §5

[13] = test system: H522 NSCLC cell line; test: as above; assay type: cell-based, human; conditions: phenotype Mesenchymal-like
Method: as §5

[14] = test system: H23 NSCLC cell line; test: as above; assay type: cell-based, human; conditions: phenotype Mesenchymal-like
Method: as §5

[15] = test system: H1703 NSCLC cell line; test: as above; assay type: cell-based, human; conditions: phenotype Mesenchymal-like
Method: as §5

[16] = test system: H1155 NSCLC cell line; test: as above; assay type: cell-based, human; conditions: phenotype Mesenchymal-like
Method: as §5

[17] = test system: HOP92 NSCLC cell line; test: as above; assay type: cell-based, human; conditions: phenotype Mesenchymal-like
Method: as §5

[18] = test system: CALU1 NSCLC cell line; test: as above; assay type: cell-based, human; conditions: phenotype Mesenchymal-like
Method: as §5

[19] = test system: H322 NSCLC cell line; test: as above; assay type: cell-based, human; conditions: phenotype Epithelial
Method: as §5

[20] = test system: H358 NSCLC cell line; test: as above; assay type: cell-based, human; conditions: phenotype Epithelial
Method: as §5

[21] = test system: A549 NSCLC cell line; test: as above; assay type: cell-based, human; conditions: phenotype Mixed
Method: as §5

[22] = test system: H441 NSCLC cell line; test: as above; assay type: cell-based, human; conditions: phenotype Epithelial
Method: as §5

[23] = test system: H1299 NSCLC cell line; test: as above; assay type: cell-based, human; conditions: phenotype Mesenchymal-like
Method: as §5

[24] = test system: H460 NSCLC cell line; test: as above; assay type: cell-based, human; conditions: phenotype Mesenchymal-like
Method: as §5

[25] = test system: SW1573 NSCLC cell line; test: as above; assay type: cell-based, human; conditions: phenotype Mesenchymal-like
Method: as §5

[26] = test system: H650 NSCLC cell line; test: as above; assay type: cell-based, human; conditions: phenotype Mesenchymal-like
Method: as §5

[27] = test system: H292 NSCLC cell line; test: as above; assay type: cell-based, human; conditions: phenotype Epithelial
Method: as §5

[28] = test system: CALU6 NSCLC cell line; test: as above; assay type: cell-based, human; conditions: phenotype Mesenchymal-like
Method: as §5

[29] = test system: ERK MAP kinase and AKT pathways in Calu1 cells; test: Intracellular signaling, immunoblot of pERK and pAKT; assay type: cell-based, human; conditions: presence or absence of exogenously added ligand
Method: as §5
Protein immunodetection was performed by electrophoretic transfer of SDS-PAGE separated proteins to nitrocellulose, incubation with antibody and chemiluminescent detection (PicoWest; Pierce, Rockford, Ill.). […]

[30] = 0.5% FCS and PDGF (mixed AA, AB and BB forms) added
[31] = for 2 hours, basal and FGF (10 ng/ml, 15 min) stimulated
[32] = increasing concentrations, 72 hours

## O=C(Nc1ccc(OC(F)(F)F)cc1)c1sccc1NCc1ccnc2ccccc12 [OSI-930]
[1]
  Cell motility (closure of the wound): inhibition of cell motility
[2]
  Cell motility (closure of the wound): inhibition of cell motility
[3]; inhibitor 2 hours, basal (10% FCS) and ligand stimulated (PDGF 10 ng/ml, 15 mins)
  Phosphorylation of ERK MAP kinase and AKT (serine 473): reduced phosphorylation of ERK MAP kinase and AKT (on serine 473)
[4]; basal and PDGF ligand stimulated
  Inhibition of ERK and AKT pathways: only showed ligand induced inhibition of ERK and AKT pathways
[5]; [30]
  Inhibition of cell growth (proliferation): inhibited more potently
[5]; 10% FCS, 72 hours
  Inhibition of cell growth (proliferation): Inhibition of cell growth
[6]; [30]
  Inhibition of cell growth (proliferation): failed to show any enhanced growth inhibition
[6]; 10% FCS, 72 hours
  Inhibition of cell growth (proliferation): only observed in H1703 cells
[7]; [30]
  Inhibition of cell growth (proliferation): failed to show any enhanced growth inhibition
[7]; 10% FCS, 72 hours
  Inhibition of cell growth (proliferation): not growth inhibited
[8]; [30]
  Inhibition of cell growth (proliferation): failed to show any enhanced growth inhibition
[8]; 10% FCS, 72 hours
  Inhibition of cell growth (proliferation): not growth inhibited

## C#Cc1cccc(Nc2ncnc3cc(OCCOC)c(OCCOC)cc23)c1 [Erlotinib, [6,7-bis(2-methoxyethoxy)-4-quinazolin-4-yl]-(3-ethynylphenyl) amine]
[9]
  Xenograft growth, tumor volume: insensitive to EGFR inhibition
[10]
  Xenograft growth, tumor volume: sensitive to EGFR inhibition and shows a reduction in tumor volume during the dosing period
[11]
  Erlotinib Senistivity: Insensitive
[12]
  Erlotinib Senistivity: Insensitive
[13]
  Erlotinib Senistivity: Insensitive
[14]
  Erlotinib Senistivity: Insensitive
[14]; listed as erlotinib
  Erlotinib Senistivity: insensitive
[15]
  Erlotinib Senistivity: Insensitive
[15]; listed as erlotinib
  Erlotinib Senistivity: insensitive
[16]
  Erlotinib Senistivity: Insensitive
[17]
  Erlotinib Senistivity: Insensitive
[17]; listed as erlotinib
  Erlotinib Senistivity: insensitive
[18]
  Erlotinib Senistivity: Insensitive
[19]
  Erlotinib Senistivity: Sensitive
[20]
  Erlotinib Senistivity: Sensitive
[21]
  Erlotinib Senistivity: Intermediate
[22]
  Erlotinib Senistivity: Sensitive
[23]
  Erlotinib Senistivity: Insensitive
[24]
  Erlotinib Senistivity: Insensitive
[25]
  Erlotinib Senistivity: Insensitive
[26]
  Erlotinib Senistivity: Insensitive
[27]
  Erlotinib Senistivity: Sensitive
[28]
  Erlotinib Senistivity: Insensitive

## CCN(CC)CCCCNc1ncc2cc(-c3cc(OC)cc(OC)c3)c(NC(=O)NC(C)(C)C)nc2n1 [PD173074]
[3]; [31]
  Activation of the ERK MAP kinase pathway: inhibited
[3]; for 2 hours, basal and FGF stimulated
  AKT pathway inhibition: only inhibited after ligand stimulation
[4]; [31]
  Activation of the ERK MAP kinase pathway: inhibited
[29]
  Signaling (ERK, AKT): unaffected
[5]; [32]
  Growth inhibition (proliferation): growth inhibited
[7]; [32]
  Growth inhibition (proliferation): little effect
[8]; [32]
  Growth inhibition (proliferation): growth inhibited
